In paper PMC7589583, “Hydroxylation of Antitubercular Drug Candidate, SQ109, by Mycobacterial Cytochrome P450” (International Journal of Molecular Sciences, 2020):

Experiments:
Assay type in all cases: binding
[1] = biological target: CYP142 (Rv3518c, CYP142A1) (Mycobacterium tuberculosis, UniProt P9WPL5); assay: biochemical
[2] = biological target: T1, CYP125 (Rv3545c, CYP125A1) (Mycobacterium tuberculosis, UniProt P9WPP1); assay: biochemical
T1 sequence (P9WPP1 1-433): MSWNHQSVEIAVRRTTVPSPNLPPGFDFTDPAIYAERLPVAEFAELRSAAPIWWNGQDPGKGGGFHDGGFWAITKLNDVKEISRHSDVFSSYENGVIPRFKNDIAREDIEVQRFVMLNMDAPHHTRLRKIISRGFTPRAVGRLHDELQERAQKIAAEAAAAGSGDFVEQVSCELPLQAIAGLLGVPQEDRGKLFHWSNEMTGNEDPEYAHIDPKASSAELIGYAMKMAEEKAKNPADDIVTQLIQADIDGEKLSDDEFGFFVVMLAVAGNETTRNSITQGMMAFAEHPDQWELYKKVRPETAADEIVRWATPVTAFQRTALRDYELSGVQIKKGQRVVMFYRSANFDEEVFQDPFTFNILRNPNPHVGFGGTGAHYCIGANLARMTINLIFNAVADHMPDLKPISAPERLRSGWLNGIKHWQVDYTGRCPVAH

[3] = biological target: T2, CYP124 (Rv2266, CYP124A1) (Mycobacterium tuberculosis, UniProt P9WPP3); assay: […] Å co-crystal structure; […]; LC-MS turnover
T2 sequence (P9WPP3 1-428): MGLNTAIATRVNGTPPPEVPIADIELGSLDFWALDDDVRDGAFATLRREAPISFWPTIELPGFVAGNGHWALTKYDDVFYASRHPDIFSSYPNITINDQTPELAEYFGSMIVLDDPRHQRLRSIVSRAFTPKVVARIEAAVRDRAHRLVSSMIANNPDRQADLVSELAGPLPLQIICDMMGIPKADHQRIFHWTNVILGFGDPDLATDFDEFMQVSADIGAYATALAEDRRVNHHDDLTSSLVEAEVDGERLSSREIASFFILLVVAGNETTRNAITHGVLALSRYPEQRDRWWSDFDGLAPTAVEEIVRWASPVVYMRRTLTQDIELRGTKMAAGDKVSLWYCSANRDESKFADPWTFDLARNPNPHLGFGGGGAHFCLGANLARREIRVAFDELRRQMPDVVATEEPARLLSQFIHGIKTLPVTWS

Sequence of CYP142 (Rv3518c, CYP142A1) (P9WPL5 whole entry): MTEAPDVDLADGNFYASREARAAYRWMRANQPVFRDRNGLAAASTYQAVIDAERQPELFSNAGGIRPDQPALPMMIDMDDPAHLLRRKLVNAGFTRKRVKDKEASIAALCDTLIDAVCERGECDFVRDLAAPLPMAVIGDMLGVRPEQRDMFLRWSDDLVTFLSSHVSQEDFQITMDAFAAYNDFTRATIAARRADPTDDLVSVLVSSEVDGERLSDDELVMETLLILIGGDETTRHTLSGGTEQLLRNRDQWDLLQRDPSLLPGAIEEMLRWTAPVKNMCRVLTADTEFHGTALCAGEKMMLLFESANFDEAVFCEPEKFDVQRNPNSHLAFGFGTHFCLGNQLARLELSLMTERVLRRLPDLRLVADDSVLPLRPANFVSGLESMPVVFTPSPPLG

CC(C)=CCC/C(C)=C\CNCCNC1C2CC3CC(C2)CC1C3 (stereo not drawn) [SQ109]
Kd [1]: 52 ± 11 µM | Kd [2]: 41 ± 3 µM | Kd [3]: 3.4 ± 0.3 µM
